Test results published in patent publication US5591741A, “Fungicidal spiroheterocyclic derivatives” (American Cyanamid Company, priority 1993, dated 1997).

What was measured:
[1] = system: Plasmopara viticola; experiment: Antisporulant activity against vine downy mildew (PVA); assay type: in vivo; details: vine leaves, antisporulant foliar spray, 600 ppm, 750 l/ha
Method in brief: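 Cabernet Sauvignon vines (~8 cm) inoculated on lower leaf surfaces with 5×10^4 zoosporangia/ml, held 24 h at 21° C high humidity then 24 h glasshouse. Infected leaves sprayed underside with 600 ppm compound in 1:1 water/acetone, 0.04% Tween 20, 750 l/ha; 96 h glasshouse, 24 h humidity. Sporulating leaf area rated versus control.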

[2] = system: Alternaria solani; experiment: Activity against tomato early blight (AS); assay type: in vivo; details: Table VI; tomato seedlings, contact prophylactic foliar spray, 4 days
Method in brief: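 Plants were challenged with A. solani conidia (10^4 spores/ml) 24 h after a protective foliar spray of compound in 50:50 acetone/water plus 0.04% Tween 20. Held humid at 21° C for 4 days, then percent leaf area with lesions was scored as a rating relative to controls.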

[3] = system: Botrytis cinerea; experiment: Direct protectant activity against broad bean grey mould (BCB); assay type: in vivo; details: direct protectant foliar spray, 600 ppm, 4 days
Method in brief: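 Protectant foliar test: lesion coverage assessed 4 days after inoculation and rated relative to untreated or diluent-sprayed plants. Compound applied at 600 ppm to cv The Sutton leaves 24 h before 10^6 conidia/ml suspension; incubation at 22 °C in high humidity.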

[4] = system: Leptosphaeria nodorum; experiment: Activity against wheat leafspot (LN); assay type: in vivo; details: direct therapeutic foliar spray, 600 ppm, 6-8 days
Method in brief: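 Therapeutic foliar spray: compound at 600 ppm applied to single-leaf wheat (cv Norman) 24 h after inoculation with 1.5×10^6 conidia/ml. Disease control scored after 6-8 days at 22° C and 70% humidity as lesions per leaf versus untreated or diluent-sprayed controls.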

[5] = system: Erysiphe graminis f.sp. hordei; experiment: Activity against barley powdery mildew, direct therapeutic (EGT); assay type: in vivo; details: direct therapeutic foliar spray, 600 ppm, up to 7 days
Method in brief: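 A curative spray at 600 ppm was applied to single-leaf Golden Promise barley inoculated with powdery mildew conidia the previous day. After up to 7 days at 18 °C and 40% humidity, disease control was rated from percent leaf area sporulating relative to untreated or diluent-sprayed controls.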

[6] = system: Erysiphe graminis f.sp. hordei; experiment: Direct protectant activity against barley powdery mildew (EGP); assay type: in vivo; details: direct protectant foliar spray, 8 days
Method in brief: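 Rating reflects percentage of leaf area with sporulation compared with untreated or diluent-sprayed controls. Protectant spray was applied to single-leaf barley (cv Golden Promise) 24 h before conidia inoculation. Plants were kept at 18 °C and 40% RH throughout, with 8 days of disease development.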

[7] = system: Phytophthora infestans; assay type: in vivo; details: tomato, direct protectant foliar spray
[8] = system: Pseudocercosporella herpotrichoides; experiment: Activity against wheat eyespot in-vitro (PHI); assay type: cell-based; details: 10 ppm, 10 days, 20° C., mycelial growth
Method in brief: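 Mycelial growth was scored after 10 days at 20 °C against untreated or diluent controls. The broth was half-strength potato dextrose, holding 10 ppm test compound (from acetone) and 5×10^4 fragments/ml of the eyespot fungus.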

[9] = system: Rhizoctonia solani; experiment: Activity against Rhizoctonia in-vitro (RSI); assay type: cell-based; details: 10 ppm, 10 days, 20° C., mycelial growth
Method in brief: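 Compound at a final 10 ppm (acetone vehicle) in half-strength PDB, inoculated with 5×10^4 fragments/ml of shaken-culture R. solani mycelium. After incubation at 20° C for 10 days, growth scored as a rating versus untreated or diluent-treated controls.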

[10] = system: Venturia inaequalis; experiment: Activity against apple scab in-vitro (VII); assay type: cell-based; details: 10 ppm, 10 days, 20° C., mycelial growth
Method in brief: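 V. inaequalis propagules (5×10^4/ml, malt agar-grown) were exposed in half-strength PDB to 10 ppm final test compound delivered in acetone. Growth was scored after incubation for 10 days at 20° C, as a rating relative to untreated or diluent-sprayed controls.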

[11] = system: Pyricularia oryzae; assay type: in vivo; details: rice seedlings, direct therapeutic foliar spray, 600 ppm, 4-5 days

| Structure (SMILES) | disease control rating PVA [1] | disease control rating AS [2] | disease control rating BCB [3] | disease control rating LN [4] | disease control rating EGT [5] | disease control rating EGP [6] | disease control rating PIP [7] | disease control rating PHI [8] | disease control rating RSI [9] | disease control rating VII [10] | disease control rating PO [11] |
| --- | --- | --- | --- | --- | --- | --- | --- | --- | --- | --- | --- |
| CC(C)(C)C1CCC2(CC1)CC(NC1CCCC1)CO2 (centres unmarked) [Compound 70] | 0 (less than 50% disease control) | 1 (about 50-80% disease control) | 0 (less than 50% disease control) | 0 (less than 50% disease control) | 2 (greater than 80% disease control) | 2 (greater than 80% disease control) | 2 (greater than 80% disease control) | 0 (less than 50% disease control) | 0 (less than 50% disease control) | 1 (about 50-80% disease control) | 0 (less than 50% disease control) |
| CC(C)(C)C1CCC2(CC1)CC(NC1CC1)CO2 (centres unmarked) [Compound 71] | 0 (less than 50% disease control) | 0 (less than 50% disease control) | 0 (less than 50% disease control) | 1 (about 50-80% disease control) | 2 (greater than 80% disease control) | 2 (greater than 80% disease control) | 2 (greater than 80% disease control) | 0 (less than 50% disease control) | 0 (less than 50% disease control) | 1 (about 50-80% disease control) | 0 (less than 50% disease control) |
| CCCCCN(CC)C1COC2(CCC(C(C)(C)C)CC2)C1 (centres unmarked) [Compound 72] | 0 (less than 50% disease control) | 0 (less than 50% disease control) | 0 (less than 50% disease control) | 0 (less than 50% disease control) | 2 (greater than 80% disease control) | 2 (greater than 80% disease control) | 0 (less than 50% disease control) | 0 (less than 50% disease control) | 0 (less than 50% disease control) | 1 (about 50-80% disease control) | 0 (less than 50% disease control) |
| CCCCCN(CCC)C1COC2(CCC(C(C)(C)C)CC2)C1 (centres unmarked) [Compound 73] | 0 (less than 50% disease control) | 0 (less than 50% disease control) | 1 (about 50-80% disease control) | 0 (less than 50% disease control) | 2 (greater than 80% disease control) | 2 (greater than 80% disease control) | 0 (less than 50% disease control) | 0 (less than 50% disease control) | 0 (less than 50% disease control) | 0 (less than 50% disease control) | 0 (less than 50% disease control) |
| CCCCCN(CCCC)C1COC2(CCC(C(C)(C)C)CC2)C1 (centres unmarked) [Compound 74] | 0 (less than 50% disease control) | 0 (less than 50% disease control) | 0 (less than 50% disease control) | 0 (less than 50% disease control) | 2 (greater than 80% disease control) | 2 (greater than 80% disease control) | 0 (less than 50% disease control) | 0 (less than 50% disease control) | 0 (less than 50% disease control) | 0 (less than 50% disease control) | 0 (less than 50% disease control) |
| CCCCCN(CC(C)C)C1COC2(CCC(C(C)(C)C)CC2)C1 (centres unmarked) [Compound 75] | 0 (less than 50% disease control) | 0 (less than 50% disease control) | 2 (greater than 80% disease control) | 0 (less than 50% disease control) | 2 (greater than 80% disease control) | 2 (greater than 80% disease control) | 0 (less than 50% disease control) | 0 (less than 50% disease control) | 0 (less than 50% disease control) | 0 (less than 50% disease control) | 0 (less than 50% disease control) |
| CCCCCN(C(C)C)C1COC2(CCC(C(C)(C)C)CC2)C1 (centres unmarked) [Compound 76] | 0 (less than 50% disease control) | 0 (less than 50% disease control) | 0 (less than 50% disease control) | 0 (less than 50% disease control) | 2 (greater than 80% disease control) | 2 (greater than 80% disease control) | 0 (less than 50% disease control) | 0 (less than 50% disease control) | 0 (less than 50% disease control) | 0 (less than 50% disease control) | 0 (less than 50% disease control) |
| CCCCCN(C1CCCCC1)C1COC2(CCC(C(C)(C)C)CC2)C1 (centres unmarked) [Compound 77] | 0 (less than 50% disease control) | 0 (less than 50% disease control) | 0 (less than 50% disease control) | 0 (less than 50% disease control) | 2 (greater than 80% disease control) | 2 (greater than 80% disease control) | 0 (less than 50% disease control) | 0 (less than 50% disease control) | 0 (less than 50% disease control) | 0 (less than 50% disease control) | 0 (less than 50% disease control) |
| CCCCCN(C)C1COC2(CCC(C(C)(C)C)CC2)C1 (centres unmarked) [Compound 78] | 0 (less than 50% disease control) | 0 (less than 50% disease control) | 1 (about 50-80% disease control) | 0 (less than 50% disease control) | 2 (greater than 80% disease control) | 2 (greater than 80% disease control) | 0 (less than 50% disease control) | 0 (less than 50% disease control) | 0 (less than 50% disease control) | 0 (less than 50% disease control) | 0 (less than 50% disease control) |
| C=CCN(C1CCCCC1)C1COC2(CCC(C(C)(C)C)CC2)C1 (centres unmarked) [Compound 79] | 0 (less than 50% disease control) | 0 (less than 50% disease control) | 1 (about 50-80% disease control) | 0 (less than 50% disease control) | 2 (greater than 80% disease control) | 2 (greater than 80% disease control) | 2 (greater than 80% disease control) | 0 (less than 50% disease control) | 0 (less than 50% disease control) | 0 (less than 50% disease control) | 0 (less than 50% disease control) |
